Experimental data as given in patent publication US5455255A, “2-(2,3,5,6-tetrafluoro-4-pyridyl)-1,2-benzisothiazol-3(2H)-one 1,1-dioxides and compositions and method of use thereof” (Sterling Winthrop Inc., priority 1994, dated 1995).

Biological target: T1, human leukocyte elastase (Homo sapiens, UniProt P08246)
T1 sequence (P08246 30-267): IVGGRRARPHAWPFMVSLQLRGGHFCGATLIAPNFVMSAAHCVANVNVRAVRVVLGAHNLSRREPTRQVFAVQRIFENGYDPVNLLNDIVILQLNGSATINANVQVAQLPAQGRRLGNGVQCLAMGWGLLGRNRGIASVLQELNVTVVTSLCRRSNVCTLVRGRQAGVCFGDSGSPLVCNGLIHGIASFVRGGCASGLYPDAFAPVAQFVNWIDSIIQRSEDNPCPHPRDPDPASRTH
Assay: Human leukocyte elastase (HLE) inhibition, progress-curve assay with MeOSuc-Ala-Ala-Pro-Val-pNA
Format: biochemical
Conditions: substrate MeOSuc-Ala-Ala-Pro-Val-pNA, pH 7.8, 25° C., absorbance 410 nm, read-out: Ki (human leukocyte elastase inhibitory activity)
Protocol: The test compound (inhibitor) is dissolved in DMSO in a vial to produce an inhibitor stock solution which has a concentration in the range of 200-1000 μM. The inhibitor stock solution is diluted (1:4, 1:16 and 1:64) into assay vials (vials 1, 2 and 3 respectively) containing 2.4 mL of buffer solution (50 mM N-[2-hydroxyethyl] piperazine-N'-[2-ethanesulfonic acid]/NaOH, 500 mM NaCl, pH 7.8 at 25° C.) and DMSO is added so that the total volume in each vial is 3.2 mL. 70 μL, 50 μL, 35 μL and 25 μL of inhibitor from assay vial 1 is placed into the first four wells of a 96-well microtiter plate and each well is made up to 90 μL total volume with the addition of a 25% DMSO/buffer solution. The inhibitor from assay vials 2 and 3 is processed in a similar manner and placed in wells 5-12 respectively to afford a total of 12 different inhibitor concentrations. Four wells (wells 13-16) containing 90 μL of the 25% DMSO/buffer solution but no inhibitor are also run simultaneously with the inhibited wells as a control. 150 μL of substrate solution (prepared by the addition of 500 μL of the human leukocyte elastase (HLE) substrate MeOSuc-Ala-Ala-Pro-Val-pNA (18.7 mM in DMSO) to 19.5 mL of buffer solution) was then added simultaneously into each of the 16 wells and the solution in each well was thoroughly mixed.
The 96-well microtiter plate was placed into a Microplate Reader #89815A spectrophotometer 110 μL of the enzyme solution (prepared as follows: a mixture of 20 mL of buffer solution and 20 mg of bovine serum albumen is gently vortexed in a scintillation vial and 5 μL HLE stock solution (1 mg/mL dissolved in deionized water) is added simultaneously to each of the 16 wells. Each of the solutions in the wells is throughly mixed and then the time-dependent absorbance data is collected at an absorbance of 410 nm until the assay is complete. It should be noted that although this assay method can be done manually, it is preferred to perform the assay robotically using a Hewlett Packard MicroAssay System Robot.
A plot of the absorbance versus time data thus obtained affords progress curves the final slope of which is equal to the final steady-state velocities (VF). Using the program. ENZFITTER (Elsevier software), the progress curves for the four control assays ([I]=O) are fit by linear regression to yield the enzyme reaction velocity values in the absences of inhibitor (Vo) which are averaged to produce a single fixed value. The inhibition constant Ki (nM) is then obtained from a plot of [formula] which affords a linear plot wherein: [formula] and [S] is the concentration of the substrate and Km is the Michaelis constant.
Table IV summarizes the results obtained from the testing of representative compounds of the invention for human leukocyte elastase inhibitory activity.

SMILES	Ki [nM]
CC(C)c1cc(O)cc2c1C(=O)N(c1c(F)c(F)nc(F)c1F)S2(=O)=O [Example 11, 4-isopropyl-6-hydroxy-2-(2,3,5,6-tetrafluoro-4-pyridyl)-1,2-benzisothiazol-1,2-benzisothiazol-3(2H)-one 1,1-dioxide]	2000
CC(C)c1cccc2c1C(=O)N(c1c(F)c(F)nc(F)c1F)S2(=O)=O [Example 10]	100
COc1cc(OC)c2c(c1)S(=O)(=O)N(c1c(F)c(F)nc(F)c1F)C2=O [Example 4]	4
CC(C)Oc1cccc2c1C(=O)N(c1c(F)c(F)nc(F)c1F)S2(=O)=O [Example 9]	140
COc1ccc2c(c1OC)C(=O)N(c1c(F)c(F)nc(F)c1F)S2(=O)=O [Example 5]	15
O=C1c2ccccc2S(=O)(=O)N1c1c(F)c(F)nc(F)c1F [Example 1, 2-(2,3,5,6-tetrafluoro-4-pyridyl)-1,2-benzisothiazol-3(2H)-one 1,1-dioxide]	20
COc1cc2c(c(C(C)C)c1OC)C(=O)N(c1c(F)c(F)nc(F)c1F)S2(=O)=O [Example 3]	47.5
CC(C)Oc1cc(C(C)C)c2c(c1)S(=O)(=O)N(c1c(F)c(F)nc(F)c1F)C2=O [Example 12, 4-isopropyl-6-isopropoxy-2-(2,3,5,6-tetrafluoro-4-pyridyl)-1.2-benzisothiazol-3(2H)-one 1,1-dioxide]	50
COc1cccc2c1C(=O)N(c1c(F)c(F)nc(F)c1F)S2(=O)=O [Example 7]	6.5
COc1cc(C(C)C)c2c(c1)S(=O)(=O)N(c1c(F)c(F)nc(F)c1F)C2=O [Example 2, 4-isopropyl-6-methoxy-2-(2,3,5,6-tetrafluoro-4-pyridyl)-1,2-benzisothiazol-3(2H)-one 1,1-dioxide]	38
CCCc1c(OC)c(OC)cc2c1C(=O)N(c1c(F)c(F)nc(F)c1F)S2(=O)=O [Example 6]	16
CCOc1cccc2c1C(=O)N(c1c(F)c(F)nc(F)c1F)S2(=O)=O [Example 8]	1.4
COc1ccc2c(c1)S(=O)(=O)N(c1c(F)c(F)nc(F)c1F)C2=O [Example 10A]	74
